From patent publication US8598342B2, “Methods and compounds for antimicrobial intervention” (President and Fellows of Harvard College, priority 2008, dated 2013) come the findings set out here.

One assay deals with T1, S. aureus TarL (Staphylococcus aureus, UniProt Q2G1B8).
T1 construct: made in house
T1 sequence (Q2G1B8 1-562): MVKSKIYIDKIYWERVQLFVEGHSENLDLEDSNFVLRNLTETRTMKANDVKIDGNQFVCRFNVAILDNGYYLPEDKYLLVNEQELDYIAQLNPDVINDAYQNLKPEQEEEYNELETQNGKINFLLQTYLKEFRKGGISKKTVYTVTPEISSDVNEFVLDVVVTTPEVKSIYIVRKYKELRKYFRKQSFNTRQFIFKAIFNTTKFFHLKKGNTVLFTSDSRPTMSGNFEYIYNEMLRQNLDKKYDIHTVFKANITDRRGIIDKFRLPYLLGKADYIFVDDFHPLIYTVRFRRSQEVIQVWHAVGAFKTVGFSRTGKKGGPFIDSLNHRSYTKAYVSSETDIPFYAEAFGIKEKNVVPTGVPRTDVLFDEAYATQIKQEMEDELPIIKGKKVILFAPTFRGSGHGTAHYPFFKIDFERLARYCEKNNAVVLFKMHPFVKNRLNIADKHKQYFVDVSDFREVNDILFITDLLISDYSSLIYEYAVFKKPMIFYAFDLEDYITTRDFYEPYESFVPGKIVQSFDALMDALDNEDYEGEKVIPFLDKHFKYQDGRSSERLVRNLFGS
The assay is described as follows: In vitro enzyme inhibition assay, TarL (radiometric). The assay is classed as biochemical. The conditions noted are these: targocil 50 μg/mL; enzyme 200 nM. As to the method: (A) TarL reaction with heat-treated enzyme; (B) TarL reaction with active enzyme; (C) TarL reaction with 5 μM targocil; (D) TarL reaction with 50 μM targocil; (E) TarL reaction with 100 μM targocil.
(§1) S. aureus TarB, D, F, I, and L were cloned, overexpressed and purified as described previously (S. Brown, Y. H. Zhang, S. Walker, Chemistry & Biology 15, 12, Jan. 2008.) Radiometric in vitro assays were run to test the inhibitory effects of targocil on Tar B, D, F, and L, while TarI was assayed for targocil inhibition using an HPLC assay using conditions similar to those previously reported (ibid). See below for exact reaction conditions. […] In each case, a reaction with no targocil served as a negative control (active enzymatic reaction) and a reaction with heat-treated enzyme served as a positive control (no enzymatic reaction). Targocil was incubated with all reaction components except the substrates at room temperature. After 10 minutes, substrates were added and the reactions were allowed to proceed for 60 minutes. The reactions were quenched with DMF and the products were imaged/monitored as previously described (ibid).
TarL in vitro inhibition assay protocol and data. Each 3 μL reaction contained 1 μM [14C] (GroP)2-ManNAc-β-(1,4)-GlcNAc-pp-farnesyl, 50 μM CDP-ribitol, 20 mM Tris base pH 7.5, 100 mM NaCl, 10 mM MgCl2, 200 nM TarL and either 5, 50, or 100 μM targocil. […]

For another assay, the target named is T2, S. aureus TarD (Staphylococcus aureus, UniProt Q2G2X2).
T2 construct: made in house
T2 sequence (Q2G2X2 1-132): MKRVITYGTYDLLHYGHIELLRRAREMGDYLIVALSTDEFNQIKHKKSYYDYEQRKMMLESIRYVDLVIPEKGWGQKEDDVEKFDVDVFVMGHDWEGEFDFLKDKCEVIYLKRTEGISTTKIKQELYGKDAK
The assay is described as follows: In vitro enzyme inhibition assay, TarD (radiometric). It is filed as biochemical. The conditions noted are these: targocil 50 μg/mL; enzyme 200 nM. As to the method: as §1
TarD in vitro inhibition assay protocol and data. Each 3 μL reaction contained 50 mM HEPES pH 8, 10 mM MgCl2, 1 mM DTT, 1 μM [14C]-glycerol-3-phosphate, 9 μM glycerol-3-phosphate, 20 μM CTP, 200 nM TarD. The reactions were quenched with 3 μL DMF, and 2 μL of the reaction mixture were combined with 2 μL 2× loading dye (40% glycerol, 0.2% bromophenol blue) and loaded onto a 20% acrylamide/0.25M TBE gel as described previously (ibid.). […]

In another assay the test system is B. subtilis 168. The assay is described as follows: MIC panel of Gram-positive strains: B. subtilis 168. The assay is classed as cell-based, Bacillus subtilis. As to the method:
(A) Targocil MIC data for a panel of Gram-positive strains, including MRSA clinical isolates B5271 and 5340A. Growth was monitored in triplicate after 12 h at 28° C. using optical density. (B) Two dimensional drug interaction analysis between tunicamycin and targocil grown for 18 h at 30° C. […] At higher concentrations, tunicamycin is toxic because it inhibits cell wall biosynthesis. […] Varying concentrations of drug were added to […] of S. aureus RN4220 after 5 h and cell count was monitored over time at 30° C. […] Cells were grown at 28° C. for 12 h and monitored for growth using optical density (OD600). Data were normalized to the DMSO controls for each strain. (E) Two classes of mutants were examined: phage resistant (m1 3) and phage sensitive (m4-5).

For the next assay, the target named is T3, S. aureus TarB (Staphylococcus aureus, UniProt Q2G2X4).
T3 construct: made in house
T3 sequence (Q2G2X4 1-367): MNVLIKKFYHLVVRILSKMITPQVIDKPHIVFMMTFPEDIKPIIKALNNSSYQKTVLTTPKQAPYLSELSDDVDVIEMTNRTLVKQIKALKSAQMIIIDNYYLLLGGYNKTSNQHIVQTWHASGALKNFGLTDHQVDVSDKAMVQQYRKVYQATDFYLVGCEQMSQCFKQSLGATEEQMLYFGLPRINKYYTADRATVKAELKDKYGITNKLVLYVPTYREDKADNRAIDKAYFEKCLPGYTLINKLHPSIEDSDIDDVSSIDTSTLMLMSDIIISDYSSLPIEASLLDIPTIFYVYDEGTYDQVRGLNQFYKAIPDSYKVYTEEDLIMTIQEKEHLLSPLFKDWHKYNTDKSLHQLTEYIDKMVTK
The assay is described as follows: In vitro enzyme inhibition assay, TarB (radiometric). It is filed as biochemical. The note with it: targocil 50 μg/mL; enzyme 200 nM. As for the experimental part:
as §1

In another assay the target is T4, S. aureus TarF (Staphylococcus aureus, UniProt Q2G1C1).
T4 construct: made in house
T4 sequence (Q2G1C1 1-389): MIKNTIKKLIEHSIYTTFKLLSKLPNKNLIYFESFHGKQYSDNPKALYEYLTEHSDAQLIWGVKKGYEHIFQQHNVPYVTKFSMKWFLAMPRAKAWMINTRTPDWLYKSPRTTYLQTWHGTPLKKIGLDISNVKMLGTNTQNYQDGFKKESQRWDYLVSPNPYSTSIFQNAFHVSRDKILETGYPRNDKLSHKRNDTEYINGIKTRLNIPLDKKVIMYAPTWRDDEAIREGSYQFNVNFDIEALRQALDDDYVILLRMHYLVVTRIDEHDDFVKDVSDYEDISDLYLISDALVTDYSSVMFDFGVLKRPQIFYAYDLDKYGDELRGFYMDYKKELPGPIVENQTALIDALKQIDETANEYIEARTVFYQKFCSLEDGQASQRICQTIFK
The assay is described as follows: In vitro enzyme inhibition assay, TarF (radiometric). The note with it: targocil 50 μg/mL; enzyme 200 nM. The assay is classed as biochemical. As to the method:
as §1
TarF in vitro inhibition assay protocol. Each 3 μL reaction contained 1 μM [14C]-GroP-ManNAc β-(1,4)-GlcNAc-pp-farnesyl, 3 μM [14C]-CDP-glycerol, 20 mM Tris base pH 7.5, 100 mM NaCl, 10 mM MgCl2, 200 nM TarF. The reactions were quenched and imaged as described above for TarB.

For `CCN(CC)c1nc2c(S(=O)(=O)c3ccccc3)nnn2c2ccc(Cl)cc12` [7-chloro-N,N-diethyl-3-(phenylsulfonyl)-[1,2,3]triazolo[1,5-a]quinazolin-5-amine], the “inhibition of TarL” value against S. aureus TarL is recorded as “None of these enzymes was inhibited”. At S. aureus TarD, the “inhibition of TarD” value is recorded as “None of these enzymes was inhibited”. Besides, the “susceptibility of B. subtilis 168” value with B. subtilis 168 is on record as “targocil resistance in B. subtilis 168”. Moreover, the “inhibition of TarB” value on S. aureus TarB is reported as “None of these enzymes was inhibited”. In addition, the “inhibition of TarF” value against S. aureus TarF is given as “None of these enzymes was inhibited”.
